Measured values: patent US20050049186A1, “Peptides mimicking the biological activity of steroid hormones and their uses” (priority 2000, published 2005)
Peptide text beside a SMILES is read from it.

Assays:
[1] = tested on: anti-progesterone mAb clone 1E11; experiment: RIA: competition with [3H]-progesterone for anti-progesterone clone 1E11; design: species or system mouse; conditions: FIG. 4, read-out: IC50, competition with [3H]-progesterone for binding sites of anti-progesterone clone 1E11
From the text: In order to confirm the specific binding activity of the peptides 3 and 4 for the anti-progesterone mnAb clone 1E11, a RIA system where the peptides competed with [^3H]-progesterone for the binding sites of clone 1E11 was used. […]

[2] = tested on: anti-E2, clone 15; experiment: ELISA: competition with solid-phase estradiol ovalbumin conjugate for anti-E2 clone 15; type: binding, mouse
From the text: (§1) ELISA methodology was used first for the initial screening of the various peptides for antibody binding specificity.

[3] = tested on: anti-E2 antibodies, clones 8D9, 11B6 and 2F9; experiment: ELISA: competition with solid-phase estradiol ovalbumin conjugate for other high affinity anti-E2 antibodies; type: binding; conditions: peptide at 0.5 mM
From the text: as §1

[4] = tested on: anti-progesterone, clone 1E11, anti-estriol, clone 9B4, anti-testosterone, clone 5F2; experiment: ELISA: competition with solid phase hapten protein conjugates for homologous anti-steroidal antibodies; type: binding; conditions: data not shown
From the text: as §1

[5] = target: anti-estradiol mAb, clone 15; experiment: Competitive binding radioimmunoassay with [3H]-estradiol; design: species or system mouse; conditions: RIA, FIG. 1; read-out: IC50, competition with [3H]-estradiol for binding sites of anti-estradiol mAb clone 15
[6] = target: ER β (Homo sapiens, UniProt Q92731); experiment: Receptor binding assay for estrogen receptor beta
[7] = tested on: creatine kinase (CK) specific activity in rat tissues; experiment: Stimulation of creatine kinase specific activity in rat tissues in vivo
Procedure: The control goups received 0.5 ml saline containing 0.5% ethanol or tris-saline alone. The various organs were assayed for CK activity four hours after treatment.

[8] = target: anti-estradiol mAb clone 15; experiment: Competitive immunoassay: inhibition of binding of labeled E2 (estradiol ovalbumin europium conjugate) to anti-E2 clone 15; design: species or system mouse; conditions: Table 5; estradiol ovalbumin europium conjugate
From the text: […]. The linear peptide 1 is 15-amino acid long. We further explored the possibility whether smaller peptides derived from peptide 1 may have antibody binding activity and receptor binding activity. In order to find out the minimum amino acid sequence required in the linear peptide 1 for antibody and receptor binding, several peptides with varying length of from 4 to 14 amino acids long were synthesized, and were first evaluated in terms of binding to anti-estradiol (E2) mAb clone 15. The peptides showing similar or better antibody binding activity than the linear peptide 1 were further evaluated in terms of binding to ERα and β.

[9] = immature female rats, four hours after treatment, estradiol 5 μg/rat, peptides and raloxifene 0.5 mg/rat, mean ± S.E.M., n=15

Sequence of ER β (Q92731 whole entry, species assumed): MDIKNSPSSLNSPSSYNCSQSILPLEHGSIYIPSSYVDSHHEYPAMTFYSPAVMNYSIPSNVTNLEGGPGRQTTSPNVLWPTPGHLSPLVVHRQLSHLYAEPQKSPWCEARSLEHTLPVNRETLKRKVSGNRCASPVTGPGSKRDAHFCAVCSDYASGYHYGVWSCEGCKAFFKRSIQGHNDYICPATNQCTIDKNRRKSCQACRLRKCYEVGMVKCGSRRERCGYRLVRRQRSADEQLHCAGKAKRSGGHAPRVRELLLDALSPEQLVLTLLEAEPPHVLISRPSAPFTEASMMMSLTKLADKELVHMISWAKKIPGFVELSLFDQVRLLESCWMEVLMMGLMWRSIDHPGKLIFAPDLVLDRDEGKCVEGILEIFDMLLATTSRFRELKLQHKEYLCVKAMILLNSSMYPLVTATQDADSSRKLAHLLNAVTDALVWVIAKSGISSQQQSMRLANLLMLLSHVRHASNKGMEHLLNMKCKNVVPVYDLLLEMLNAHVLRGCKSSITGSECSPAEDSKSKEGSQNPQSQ

CC[C@H](C)[C@H](NC(=O)[C@@H](NC(=O)[C@H](CO)NC(=O)[C@H](CC(C)C)NC(=O)[C@H](Cc1ccccc1)NC(=O)[C@H](CCC(N)=O)NC(=O)[C@H](C)NC(=O)[C@H](CCC(N)=O)NC(=O)[C@H](CC(=O)O)NC(=O)[C@H](Cc1c[nH]c2ccccc12)NC(=O)[C@@H]1CCCN1C(=O)[C@H](Cc1c[nH]cn1)NC(=O)[C@H](CC(N)=O)NC(=O)[C@@H](N)C(C)C)[C@@H](C)O)C(=O)O [Peptide 3] (H-VNHPWDQAQFLSTI-OH)
IC50 [1]: ~100 µM

CC(C)C[C@H](NC(=O)[C@H](C)NC(=O)[C@@H]1CCCN1C(=O)[C@@H](N)CC(C)C)C(=O)N[C@@H](CC(=O)O)C(=O)N1CCC[C@H]1C(=O)N[C@H](C(=O)N[C@@H](CCCCN)C(=O)N[C@@H](CCCNC(=N)N)C(=O)N[C@@H](Cc1c[nH]c2ccccc12)C(=O)N[C@@H](Cc1ccccc1)C(=O)N[C@@H](Cc1ccccc1)C(=O)N[C@@H](CCC(=O)O)C(=O)N[C@H](C(=O)N[C@@H](CCCCN)C(=O)O)[C@@H](C)O)[C@@H](C)O [Peptide 1] (H-LPALDPTKRWFFETK-OH; N-terminus and C-terminus assumed)
inhibition of the binding of immobilized estradiol ovalbumin conjugate to anti-E2, clone 15 ([2]; ELISA, peptide at a concentration of 0.5 mM): 36% | recognition of anti-E2 mAb clone 15 ([2]; initial binding studies): recognized | inhibition of the binding of immobilized estradiol ovalbumin conjugate to other high affinity anti-E2 antibodies [3]: not | competing with solid phase hapten protein conjugates for the binding sites of homologous anti-steroidal antibodies [4]: not capable of competing | IC50 [5]: ~5 µM | binding to ER β ([6]; FIG. 3): none | IC50 to ERβ ([6]; Table 5): none | stimulation of CK activity in rat tissues ([7]; higher concentration 2.5 mg/rat, data not shown): stimulated the CK activity in the epiphysis and aorta as well | increase in the specific activity of creatine kinase (CK) in rat tissues ([7]; immature female rats, 4 hours, estradiol 5 μg/rat, peptides 0.5 mg/rat): increase in CK activity only in the uterus and left ventricle | Creatine kinase specific activity (Experimental/control), Aorta [7, 9]: 1.35 ± 0.23 | Creatine kinase specific activity (Experimental/control), Diapysis [7, 9]: 1.09 ± 0.17 | Creatine kinase specific activity (Experimental/control), Epipysis [7, 9]: 1.10 ± 0.09 | Creatine kinase specific activity (Experimental/control), LV (left ventricle) [7, 9]: 1.41 ± 03 | Creatine kinase specific activity (Experimental/control), Uterus [7, 9]: 1.6 ± 0.27 | IC50 [8]: 1 µM

CC(C)[C@H](NC(=O)[C@H](Cc1c[nH]cn1)NC(=O)[C@@H]1CSSC[C@H](NC(=O)[C@H](Cc2ccccc2)NC(=O)[C@@H]2CCCN2C(=O)[C@H](CC(N)=O)NC(=O)[C@@H](N)CO)C(=O)N[C@@H](CCC(N)=O)C(=O)N[C@@H]([C@@H](C)O)C(=O)N[C@@H](CC(=O)O)C(=O)NCC(=O)N[C@@H](CC(=O)O)C(=O)N1)C(=O)N[C@@H](Cc1c[nH]cn1)C(=O)N[C@H](C(=O)O)[C@@H](C)O [Peptide 4] (HELM PEPTIDE1{S.N.P.F.C.Q.T.D.G.D.C.H.V.H.T}$PEPTIDE1,PEPTIDE1,5:R3-11:R3$$$V2.0; N-terminus and C-terminus assumed; bridges inferred)
IC50 [1]: ~5 µM

CC(=O)[C@H]1CC[C@H]2[C@@H]3CCC4=CC(=O)CC[C@]4(C)[C@H]3CC[C@]12C [Progesterone, progesterone, reference compound]
IC50 [1]: < 0.001 µM
